Assays:
[1] = set-up: species or system Ross 308 male broilers; details: in vivo
[2] = in vivo
[3] = tested on: Salmonella enteritidis PT4; set-up: species or system Ross 308 male broilers; details: in vivo

Q: For `COc1cc(CNC(=O)CCCCC#Cc2ccccc2)ccc1O` [phenylcapsaicin], which spleen weight [1] is on record?
A: Its spleen weight is “did not affect”.

Q: And the “BWG with increasing dose level” value [2]?
A: The value was “tendency towards a lower BWG”.

Q: What about the “body weight (BW) vs 0, 20 or 28 mg/kg” value [2] of the same compound?
A: Its value is “significantly lower”.

Q: What about the “body weight gain (BWG) vs 0, 20 or 28 mg/kg” value [2] of the same compound?
A: The value was “significantly lower”.

Q: What about the daily feed intake [2] of the same compound?
A: The daily feed intake was “no effect”.

Q: What about the “feed conversion ratio vs other Salmonella inoculated treatments” value [2] of the same compound?
A: The value was “higher”.

Q: What about the feed intake [2] of the same compound?
A: The feed intake was “did not affect”.

Q: And the BWG ([2]; 36 mg/kg)?
A: Its BWG is “numerically the lowest”.

Q: What about the FCR ([2]; 36 mg/kg) of the same compound?
A: The FCR was “highest”.

Q: And the “Salmonella counts (ranked) vs control group” value [3]?
A: The value was “consistently lower”.

Q: What about the “Salmonella counts vs control chickens on a diet without phenylcapsaicin” value [3] of the same compound?
A: The value was “numerically had lower”.

Q: And the “caecal colonization of Salmonella enteritidis PT4” value [3]?
A: Its value is “not affected”.

Q: What about the “differences in ranked numbers of Salmonella counts between control and 20 mg/kg treatment group” value [3] of the same compound?
A: Its value is “highly significant”.

Q: What about the “effective dose (most probable range)” value [3] of the same compound?
A: The value was “up to 20 mg/kg”.

Q: And the “next highest Salmonella value in caecal digesta” value [3]?
A: The value was 4.0×10^6 CFU/g.

Q: And the “two highest Salmonella values in caecal digesta (considered outliers)” value [3]?
A: The value was 1.2×10^7 CFU/g.

— patent publication US11000050B2 (priority 2015, dated 2021)
